Laboratory results from US5998624A, “Haloisoquinoline carboxamide” (Emory University, priority 1998, dated 1999).
Several values for one entry are separate records, joined by “and”; a condition that tells them apart may be missing. Equal values may be shown once.

Test system: PK receptor sites
Test: not given
Conditions: background statement; cited from earlier work

Structure (SMILES)	binding to PK receptor sites
CCC(C)N(C)C(=O)c1cc2ccccc2c(-c2ccccc2Cl)n1 (stereo not shown) [PK11195, 1-(2-chlorophenyl)-N-methyl-N-(alkyl)-3-isoquinoline carboxamide]	binds strongly

Biological target: T1, PK receptors (Rattus norvegicus, UniProt P16257)
T1 construct: Tissue preparations of rat kidney homogenate; from tissue; host or cells: rat kidney homogenate
Test: Inhibition of [^3 H]PK11195 binding to PK receptors in rat kidney homogenate
Conditions: [^3 H]PK11195, 60 min, room temperature, Average, N-2
Method: The binding affinities of representative compounds of the invention are given in Table I. In this study, the compounds having the generic structure defined, supra, were tested for their ability to inhibit the binding of a known PK receptor antagonist [^3 H]PK11195, to PK receptors in a rat kidney homogenate preparation.
Tissue preparations of rat kidney homogenate were incubated with [^3 H]PK11195 and competitors (i.e. 9a-d & 23a-c, at 12 concentrations ranging from 10^-11 to 10^-6 […]) in an assay buffer. The assay mixture was incubated for 60 min. at room temperature with stirring and the resulting samples were rapidly filtered through Whatman GF/B glass-fiber filters pretreated with 0.2% protamine base and washed with cold buffer, pH 7.4. The filters were counted in a liquid scintillation counter at an efficiency of 65% for tritium saturation binding, Scatchard and competition experiments were analyzed with the iterative nonlinear least squares curve-fitting program. For comparison, for PK11195, X is Cl, Y and Z are H, and R is 2-butyl. Compounds having the lower Ki values were the most As effective inhibitors, and therefore bound the PK-receptor at the lowest concentrations. Compounds of the invention are also useful for radiation therapy, based on their specific affinity for glial tumor cells.

Ki	Structure (SMILES)
2.8 nM and 1.53 nM	CCC(C)N(C)C(=O)c1cc2ccccc2c(-c2cccc(I)c2)n1 (stereo not shown) [H I H CH3 CHCH2 CH3]
421 nM	CN(CCF)C(=O)c1cc2ccccc2c(-c2ccccc2I)n1 [I H H CH2 CH2 F, 1-(2-iodophenyl)-N-methyl-N-(2-fluoroethyl)-3-isoquinolinecarboxamide]

More lines, now with the values behind:

Structure (SMILES)	Ki
CN(CCCF)C(=O)c1cc2ccccc2c(-c2ccccc2I)n1 [H H CH2 CH2 CH2 F, 1-(2-iodophenyl)-N-methyl-N-(3-fluoropropyl)-3-isoquinolinecarboxamide]	0.26 nM
CN(CCCF)C(=O)c1cc2ccccc2c(-c2ccc(I)cc2)n1 [H H I CH2 CH2 CH2 F, 1-(4-iodophenyl)-N-methyl-N-(3-fluoropropyl)-3-isoquinolinecarboxamide]	63.1 nM
CCC(C)N(C)C(=O)c1cc2ccccc2c(-c2ccc(I)cc2)n1 (stereo not shown) [H H I CH3 CHCH2 CH3]	3.1 nM and 1.6 nM
CN(CCCF)C(=O)c1cc2ccccc2c(-c2cccc(I)c2)n1 [H I H CH2 CH2 CH2 F, 1-(3-iodophenyl)-N-methyl-N-(3-fluoropropyl)-3-isoquinolinecarboxamide]	1.3 nM
